Test results reported in PubChem BioAssay (NCI).
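The compound was tested at five concentrations on cells cultured in 96-well plates, with a 48-hour exposure period. GI50 = concentration required for 50% inhibition of growth. TGI is the concentration that stops growth completely.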

Columns and labels:
Assay in all cases: NCI anticancer screen, dose series, 48 h
[1] = test system: NCI-H226 lung
[2] = test system: NCI-H522 lung
[3] = test system: NCI/ADR-RES ovarian
[4] = test system: RXF 393 renal
[5] = test system: 786-0 renal
[6] = test system: A498 renal
[7] = test system: ACHN renal
[8] = test system: BT-549 breast
[9] = test system: CAKI-1 renal
[10] = test system: CCRF-CEM leukemia
[11] = test system: DU-145 prostate
[12] = test system: EKVX NSCLC
[13] = test system: HCC-2998 colon
[14] = test system: HCT-116 colon
[15] = test system: HCT-15 colon
[16] = test system: HOP-62 NSCLC
[17] = test system: HOP-92 NSCLC
[18] = test system: HT29 colon
[19] = test system: IGROV1 ovarian
[20] = test system: K-562 leukemia
[21] = test system: KM12 colon
[22] = test system: LOX IMVI melanoma
[23] = test system: M14 melanoma
[24] = test system: MALME-3M melanoma
[25] = test system: MCF7 breast
[26] = test system: MDA-MB-231 breast
[27] = test system: MDA-MB-435
[28] = test system: MOLT-4 leukemia
[29] = test system: NCI-H23 lung
[30] = test system: NCI-H460 lung
[31] = test system: OVCAR-3 ovarian
[32] = test system: OVCAR-4 ovarian
[33] = test system: OVCAR-5 ovarian
[34] = test system: OVCAR-8 ovarian
[35] = test system: PC-3 prostate
[36] = test system: RPMI-8226 leukemia
[37] = test system: SF-268 CNS
[38] = test system: SF-295 CNS
[39] = test system: SF-539 CNS
[40] = test system: SK-MEL-2 melanoma
[41] = test system: SK-MEL-28 melanoma
[42] = test system: SK-MEL-5 melanoma
[43] = test system: SK-OV-3 ovarian
[44] = test system: SN12C renal
[45] = test system: SNB-19 CNS
[46] = test system: SNB-75 CNS
[47] = test system: SW-620 colon
[48] = test system: T-47D breast
[49] = test system: TK-10 renal
[50] = test system: U251 CNS
[51] = test system: UACC-257 melanoma
[52] = test system: UACC-62 melanoma
[53] = test system: UO-31 renal

For `CCCC1CCC(O)(C(C)(O)C(=O)NC2C(=O)N3NCCCC3C(=O)N(O)C(C)C(=O)N3NCCCC3C(=O)N3NCC(O)CC3C(=O)NC(C)C(=O)OC2C(C)C)OC1CC` (stereo not drawn), the GI50 [1] was > 25000 nM, the TGI [1] was > 25000 nM and the GI50 [2] was > 25000 nM. For the same compound, the TGI [2] was > 25000 nM, the TGI [3] was > 5530 nM and the GI50 [4] was > 25000 nM. For the same compound, the TGI [4] was > 25000 nM.

`COc1cc(/C=C2\CC3C4CC=C5C[C@@H](N6CCCC6)CC[C@]5(C)C4CC[C@]3(C)[C@H]2OC(C)=O)ccc1OCCN1CCCCC1` (stereo partly drawn) gave a GI50 [5] of 217 nM, a TGI [5] of 1890 nM and a GI50 [6] of 1760 nM. For the same compound, the TGI [6] was 3410 nM, the GI50 [7] was 1910 nM and the TGI [7] was 3730 nM. For the same compound, the GI50 [8] was 2250 nM, the TGI [8] was 4130 nM and the GI50 [9] was 1950 nM. The TGI [9] was 3950 nM, the GI50 [10] was 34.6 nM and the TGI [10] was 777 nM. For the same compound, the GI50 [11] was 1570 nM, the TGI [11] was 3670 nM and the GI50 [12] was 1990 nM. For the same compound, the TGI [12] was 4300 nM, the GI50 [13] was 397 nM and the TGI [13] was 850 nM. For the same compound, the GI50 [14] was 275 nM, the TGI [14] was 850 nM and the GI50 [15] was 1370 nM. For the same compound, the TGI [15] was 2800 nM, the GI50 [16] was 1490 nM and the TGI [16] was 2870 nM. The GI50 [17] was 257 nM, the TGI [17] was 1770 nM and the GI50 [18] was 1550 nM. For the same compound, the TGI [18] was > 100000 nM, the GI50 [19] was 1590 nM and the TGI [19] was 3230 nM. It also gave a GI50 [20] of 105 nM, a TGI [20] of 710 nM and a GI50 [21] of 540 nM. For the same compound, the TGI [21] was 1400 nM, the GI50 [22] was 1030 nM and the TGI [22] was 2570 nM. For the same compound, the GI50 [23] was 1580 nM, the TGI [23] was 3000 nM and the GI50 [24] was 164 nM. The TGI [24] was 529 nM, the GI50 [25] was 3020 nM and the TGI [25] was > 100000 nM. For the same compound, the GI50 [26] was 2270 nM, the TGI [26] was 4100 nM and the GI50 [27] was 1830 nM. It also gave a TGI [27] of 3440 nM, a GI50 [28] of 36 nM and a TGI [28] of 638 nM. It also gave a GI50 [1] of 2140 nM, a TGI [1] of 4210 nM and a GI50 [29] of 1680 nM. For the same compound, the TGI [29] was 3140 nM, the GI50 [30] was 3180 nM and the TGI [30] was > 100000 nM. The GI50 [2] was 1670 nM, the TGI [2] was 3240 nM and the GI50 [3] was 1740 nM. For the same compound, the TGI [3] was 3200 nM, the GI50 [31] was 1640 nM and the TGI [31] was 3340 nM. The GI50 [32] was 3030 nM, the TGI [32] was 8980 nM and the GI50 [33] was 1460 nM. The TGI [33] was 2850 nM, the GI50 [34] was 1800 nM and the TGI [34] was 3420 nM. It also gave a GI50 [35] of 1540 nM, a TGI [35] of 3720 nM and a GI50 [36] of 10.9 nM. The TGI [36] was 119 nM, the GI50 [4] was 1630 nM and the TGI [4] was 3640 nM. It also gave a GI50 [37] of 2260 nM, a TGI [37] of 5600 nM and a GI50 [38] of 1850 nM. The TGI [38] was 3440 nM, the GI50 [39] was 1660 nM and the TGI [39] was 3160 nM. For the same compound, the GI50 [40] was 1870 nM, the TGI [40] was 3360 nM and the GI50 [41] was 2310 nM. For the same compound, the TGI [41] was 4800 nM, the GI50 [42] was 1530 nM and the TGI [42] was 2870 nM. For the same compound, the GI50 [43] was 2150 nM, the TGI [43] was 4390 nM and the GI50 [44] was 775 nM. For the same compound, the TGI [44] was 2560 nM, the GI50 [45] was 2840 nM and the TGI [45] was 5830 nM. The GI50 [46] was 2560 nM, the TGI [46] was 5030 nM and the GI50 [47] was 777 nM. It also gave a TGI [47] of 2090 nM, a GI50 [48] of 2250 nM and a TGI [48] of 3980 nM. For the same compound, the GI50 [49] was 211 nM, the TGI [49] was 1490 nM and the GI50 [50] was 1550 nM. The TGI [50] was 3020 nM, the GI50 [51] was 1930 nM and the TGI [51] was 3910 nM. For the same compound, the GI50 [52] was 1440 nM, the TGI [52] was 2810 nM and the GI50 [53] was 1460 nM. The TGI [53] was 2830 nM.
